{"source": "BindingDB's records for doi:10.1016/s0960-894x(01)00313-4", "about": "(Cor Therapeutics, 2001)"}
{"target": "P2Y purinoceptor 12 (Homo sapiens, UniProt Q9H244)", "sequence (Q9H244 whole entry)": "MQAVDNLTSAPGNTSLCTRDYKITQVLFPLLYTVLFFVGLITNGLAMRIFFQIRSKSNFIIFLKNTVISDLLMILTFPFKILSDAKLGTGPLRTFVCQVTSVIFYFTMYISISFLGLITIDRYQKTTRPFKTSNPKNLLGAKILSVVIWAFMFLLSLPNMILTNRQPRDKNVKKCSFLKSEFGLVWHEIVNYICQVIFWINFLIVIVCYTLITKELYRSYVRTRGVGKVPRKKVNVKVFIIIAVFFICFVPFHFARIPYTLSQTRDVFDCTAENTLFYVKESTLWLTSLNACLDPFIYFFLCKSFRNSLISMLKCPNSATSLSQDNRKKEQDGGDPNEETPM", "assay": "ChEBML_162514", "from_the_text": "Ability to displace [3H]2-MeS-ADP from human Purinergic receptor P2Y12", "units": {"IC50": "µM"}}
{"smiles": "O=C1CS(=O)(=O)N=C2Sc3cc(OC(F)(F)F)ccc3N12", "note": "[2,2-Dioxo-7-trifluoromethoxy-2H-2lambda*6*,9-dithia-1,4a-diaza-fluoren-4-ol]", "IC50": "> 120"}
{"smiles": "O=C(CS(=O)(=O)Nc1nc2ccc(Oc3ccccc3)cc2s1)C1C(=O)N2C(=NS1(=O)=O)Sc1cc(Oc3ccccc3)ccc12", "note": "(stereo unspecified) [2-(4-Hydroxy-2,2-dioxo-7-phenoxy-2H-2lambda*6*,9-dithia-1,4a-diaza-fluoren-3-yl)-2-oxo-ethanesulfonic acid (6-phenoxy-benzothiazol-2-yl)-amide]", "IC50": "> 50"}
{"smiles": "O=C(CS(=O)(=O)Nc1nc2ccc(-c3ccccc3)cc2s1)C1C(=O)N2C(=NS1(=O)=O)Sc1cc(-c3ccccc3)ccc12", "note": "(stereo unspecified) [2-(4-Hydroxy-2,2-dioxo-7-phenyl-2H-2lambda*6*,9-dithia-1,4a-diaza-fluoren-3-yl)-2-oxo-ethanesulfonic acid (6-phenyl-benzothiazol-2-yl)-amide]", "IC50": "> 50"}
{"smiles": "O=C(CS(=O)(=O)Nc1nc2ccc([N+](=O)[O-])cc2s1)C1=C([O-])[n+]2c(sc3cc([N+](=O)[O-])ccc32)NS1(=O)=O", "note": "[2-(4-Hydroxy-7-nitro-2,2-dioxo-2H-2lambda*6*,9-dithia-1,4a-diaza-fluoren-3-yl)-2-oxo-ethanesulfonic acid (6-nitro-benzothiazol-2-yl)-amide]", "IC50": 35}
{"smiles": "O=C(CS(=O)(=O)Nc1nc2ccc(Cl)cc2s1)C1C(=O)N2C(=NS1(=O)=O)Sc1cc(Cl)ccc12", "note": "(stereo unspecified) [2-(7-Chloro-4-hydroxy-2,2-dioxo-2H-2lambda*6*,9-dithia-1,4a-diaza-fluoren-3-yl)-2-oxo-ethanesulfonic acid (6-chloro-benzothiazol-2-yl)-amide]", "IC50": 35}
{"smiles": "O=C(CS(=O)(=O)Nc1nc2ccc(C3CCCCC3)cc2s1)C1C(=O)N2C(=NS1(=O)=O)Sc1cc(C3CCCCC3)ccc12", "note": "(stereo unspecified) [2-(7-Cyclohexyl-4-hydroxy-2,2-dioxo-2H-2lambda*6*,9-dithia-1,4a-diaza-fluoren-3-yl)-2-oxo-ethanesulfonic acid (6-cyclohexyl-benzothiazol-2-yl)-amide]", "IC50": "> 120"}
